Measured values taken from article PMC7031697, “Mechanism of Activation of AMPK by Cordycepin” (Cell Chemical Biology, 2020).
Read-outs that look alike come from different tables or passages of the source. One block for each molecule: values may come before it.

What was measured:
[1] = molecular target: T1, AMPK complexes containing WT γ2 (Homo sapiens, UniProt Q9UGJ0); test: AMPK activity in anti-FLAG immunoprecipitates, HepG2 cells with FLAG-tagged WT AMPK-γ2; assay type: cell-based; settings: 1 h, 300 μM cordycepin, 10 mM phenformin or 300 μM A-769662
T1 construct: expressed in transfected cells; host or cells: HepG2 (transient, Fugene 6)
Procedure: (§1) HepG2 cells ([…]) were cultured in Minimum Essential Medium (MEM) supplemented with 10% (v/v) FBS, 1% (v/v) non-essential amino acids and 1% (v/v) penicillin/streptomycin. Transient transfection of DNAs encoding FLAG-tagged AMPK-γ2 or an R531G mutant of AMPK-γ2 were carried out 36-48 hr prior to experiments using Fugene 6 according to manufacturers’ instructions. U2OS cells ([…]) were cultured in Dulbecco’s Modified Eagle’s Medium (DMEM) supplemented with 10% (v/v) FBS and 1% (v/v) penicillin/streptomycin.
(§2) HepG2 cells were transiently transfected with DNAs encoding FLAG-tagged wild type AMPK-γ2 or the R531G mutant, using Fugene 6 according to the manufacturers’ instructions. After transfection for 48 hr, cells were treated with various agents as described, and cell lysates prepared ([Hawley et al., 2018]). FLAG-tagged AMPK was then immunoprecipitated from 150 μg total protein by incubation at 4°C for 2 hr on a roller mixer with 9 μl of EZview Red anti-FLAG M2 affinity gel. After extensive washing, the immunoprecipitates were assayed for AMPK activity (50 μg per assay in a total volume of 50 μl) using the AMARA peptide (200 μM) as substrate in the presence of 200 μM AMP, 5 mM MgCl2 and 200 μM γ-^32P-ATP as described previously ([Fyffe et al., 2018]).

[2] = molecular target: T2, AMPK complexes containing the R531G mutant (Homo sapiens, UniProt Q9UGJ0, R531G); test: AMPK activity in anti-FLAG immunoprecipitates, HepG2 cells with FLAG-tagged AMPK-γ2 R531G mutant; assay type: cell-based; settings: 1 h, 300 μM cordycepin, 10 mM phenformin or 300 μM A-769662
T2 construct: expressed in transfected cells; host or cells: HepG2 (transient, Fugene 6)
Procedure: as §1, §2

AMPK = test: Effect of adenosine kinase and transport inhibitors on AMPK activation in HepG2 cells; assay type: cell-based, human; settings: 1 μM ABT-702 or 0.5 μM dipyridamole; for effect of cordycepin to activate and phosphorylate AMPK: 300 μM cordycepin 1 h; for effects of AICA riboside on AMPK: 3 mM AICAR 1 h
Procedure: Endogenous AMPK in crude cell lysates was first immunoprecipitated using an equal mixture of anti-α1 and –α2 antibodies (150 μg protein) by incubation at 4°C for 2 hr on a roller mixer. After extensive washing, the immunoprecipitates were assayed for AMPK activity (50 μg per assay, total assay volume 50 μl) using the AMARA peptide (200 μM) as substrate in the presence of 200 μM AMP, 5 mM MgCl2 and 200 μM [γ-^32P]ATP ([Fyffe et al., 2018]).

[3] = tested on: AMPK purified from rat liver; test: Allosteric activation of purified rat liver AMPK (SAMS peptide, cell-free); assay type: biochemical
Procedure: AMPK (15 ng) purified from rat liver was assayed in solution using the SAMS peptide as substrate ([Fyffe et al., 2018]) in the presence of AMP or CoMP (concentrations specified in Figure legends), and either 5 mM MgCl2 and 200 μM [γ-^32P]ATP or 9.8 mM MgCl2 and 5 mM [γ-^32P]ATP, thus maintaining a constant excess of [Mg^2+] over [ATP] ([Storer and Cornish-Bowden, 1976]). Total assay volume was 25 μl.

human α2β2γ1 complex [4] = molecular target: T3, human α2β2γ1 complex (Homo sapiens, UniProt P54619+P54646); test: AMPK assay using ATP or CoTP as co-substrate (GST-ACC1 phosphorylation); assay type: biochemical; settings: for allosteric activation: 30 μM AMP; for Km / estimated Vmax as phosphate donor: GST-ACC1 substrate; for Km: Mg2+ at constant 4.8 mM excess, read-out: Km as phosphate donor; for estimated Vmax as phosphate donor: Michaelis-Menten fit; for effect on allosteric activation by AMP: at high concentrations (5 mM)
T3 construct: made in house
Procedure: As ^32P-labelled CoTP was not available, the experiments in Figures 3C and 3D were performed using non-radioactive CoTP and utilized as co-substrate a construct of glutathione-S-transferase fused at the N-terminus of residues 60-94 of rat ACC1 ([Scott et al., 2002]), which includes the Ser79 phosphorylation site. Bacterially expressed GST-ACC (0.5 μg) was incubated for 10 min in a total volume of 25 μl with bacterially expressed human AMPK (30 ng of α2β2γ1 complex, previously phosphorylated on Thr172 using CaMKK2) with ATP or CoTP as indicated, and sufficient MgCl2 to maintain a constant 4.8 mM excess of [Mg^2+] over [ATP]. Phosphorylation of this substrate was detected using anti-pACC antibody and quantified using a LiCor Odyssey imager.

human α2β2γ1 complex [5] = molecular target: T3, human α2β2γ1 complex; test: Cell-free promotion of Thr172 phosphorylation by LKB1; assay type: biochemical; settings: varying CoMP, 200 μM ATP
Procedure: These were as described previously ([Fyffe et al., 2018]) with some modifications. Bacterially expressed human AMPK (α2β2γ1 complex, unphosphorylated on Thr172, 500 ng) was incubated for 10 min in a total volume of 25 μl with 200 μM ATP, […] with/without the LKB1:STRAD:MO25 complex (10 ng), in the presence or absence of AMP (200 μM) or cordycepin as indicated. Aliquots were removed for Western blotting and AMPK assays.

rat liver AMPK = test: Cell-free inhibition of Thr172 dephosphorylation by PP2Cα; assay type: biochemical; settings: fit of AMPK activity as a function of CoMP concentration; read-out: EC50 of protection against inactivation and Thr172 dephosphorylation by PP2Cα
Procedure: These were as described previously ([Fyffe et al., 2018]) with some modifications. Rat liver AMPK (12.5 μg/ml) was incubated in a shaking incubator at 30°C for 10 min in Hepes buffer (50 mM Na Hepes pH 7.4, 150 mM NaCl, 1 mM dithiothreitol, 0.02% (w/v) Brij-35) with MgCl2 and sufficient PP2Cα to yield about 70% inactivation in the absence of added nucleotide. Aliquots were removed for Western blotting and AMPK assay. Kinase assays were performed immediately after a further 100-fold dilution, which was sufficient to prevent dephosphorylation during the assay.

[6] = 200 μM ATP, for CoMP estimated with maximal activation constrained to 4.4-fold

T3 sequence (P54646 whole entry): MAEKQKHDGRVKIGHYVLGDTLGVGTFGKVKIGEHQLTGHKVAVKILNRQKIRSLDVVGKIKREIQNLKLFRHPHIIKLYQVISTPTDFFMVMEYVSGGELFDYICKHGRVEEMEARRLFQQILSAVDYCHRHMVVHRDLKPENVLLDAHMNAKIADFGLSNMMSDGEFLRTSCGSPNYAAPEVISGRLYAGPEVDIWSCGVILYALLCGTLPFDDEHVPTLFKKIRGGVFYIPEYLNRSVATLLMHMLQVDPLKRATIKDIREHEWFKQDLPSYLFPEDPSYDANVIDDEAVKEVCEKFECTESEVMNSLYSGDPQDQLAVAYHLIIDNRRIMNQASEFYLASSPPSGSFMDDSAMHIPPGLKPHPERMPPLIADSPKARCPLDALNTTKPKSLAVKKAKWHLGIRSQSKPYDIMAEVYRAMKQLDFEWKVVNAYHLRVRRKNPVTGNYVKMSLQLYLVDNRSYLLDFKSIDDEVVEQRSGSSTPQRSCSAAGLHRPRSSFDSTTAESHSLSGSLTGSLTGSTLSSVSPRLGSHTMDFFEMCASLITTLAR
T3 sequence (O43741 whole entry partner): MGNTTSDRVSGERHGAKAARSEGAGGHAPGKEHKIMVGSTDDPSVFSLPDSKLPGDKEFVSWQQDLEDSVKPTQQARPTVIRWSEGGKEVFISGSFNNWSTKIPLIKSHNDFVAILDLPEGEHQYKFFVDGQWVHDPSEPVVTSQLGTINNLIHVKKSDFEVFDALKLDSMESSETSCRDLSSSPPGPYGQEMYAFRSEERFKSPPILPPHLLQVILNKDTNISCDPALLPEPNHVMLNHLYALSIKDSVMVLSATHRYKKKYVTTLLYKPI
T3 sequence (P54619 whole entry): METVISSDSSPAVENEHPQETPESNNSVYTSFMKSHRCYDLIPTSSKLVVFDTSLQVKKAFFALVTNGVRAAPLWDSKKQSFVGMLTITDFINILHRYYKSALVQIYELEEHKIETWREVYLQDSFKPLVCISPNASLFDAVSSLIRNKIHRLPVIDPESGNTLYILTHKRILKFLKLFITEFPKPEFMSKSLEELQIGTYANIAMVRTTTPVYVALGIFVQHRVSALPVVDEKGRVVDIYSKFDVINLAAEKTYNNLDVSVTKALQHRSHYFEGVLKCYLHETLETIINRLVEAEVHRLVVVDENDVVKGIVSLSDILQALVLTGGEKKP
T2 sequence (Q9UGJ0 whole entry R531G, one chain of several): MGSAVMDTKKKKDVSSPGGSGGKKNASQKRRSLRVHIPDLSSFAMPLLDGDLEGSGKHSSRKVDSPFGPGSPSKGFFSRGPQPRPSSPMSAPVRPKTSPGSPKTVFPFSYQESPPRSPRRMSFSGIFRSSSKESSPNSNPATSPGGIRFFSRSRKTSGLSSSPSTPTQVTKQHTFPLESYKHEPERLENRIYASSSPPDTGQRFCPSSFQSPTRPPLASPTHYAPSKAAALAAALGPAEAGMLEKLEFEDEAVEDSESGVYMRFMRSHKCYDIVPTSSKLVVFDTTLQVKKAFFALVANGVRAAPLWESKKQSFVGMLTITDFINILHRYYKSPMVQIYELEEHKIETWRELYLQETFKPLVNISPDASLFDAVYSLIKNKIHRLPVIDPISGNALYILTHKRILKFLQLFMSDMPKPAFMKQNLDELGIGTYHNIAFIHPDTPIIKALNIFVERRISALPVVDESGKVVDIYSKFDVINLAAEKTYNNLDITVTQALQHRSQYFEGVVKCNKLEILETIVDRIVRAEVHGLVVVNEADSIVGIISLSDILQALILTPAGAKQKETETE
T1 sequence (Q9UGJ0 whole entry, one chain of several): as the sequence (Q9UGJ0 whole entry R531G, one chain of several) above, with G531R counted along it

- activation of AMPK complexes containing WT γ2 [1]: activated
- activation of AMPK complexes containing the R531G mutant [2]: still activated
SMILES: N#Cc1c(O)c2c(-c3ccc(-c4ccccc4O)cc3)csc2[nH]c1=O [A-769662]

SMILES: Nc1ncnc2nc(-c3ccc(N4CCOCC4)nc3)cc(-c3cccc(Br)c3)c12 [ABT-702, 4-amino-5-(3-bromophenyl)-7-(6-morpholinopyridin-3-yl)pyrido[2,3-d]pyrimidine]
- effect of cordycepin to activate and phosphorylate AMPK (AMPK): blocked
- effects of AICA riboside on AMPK (AMPK): also blocked

SMILES: Nc1ncnc2c1ncn2[C@@H]1O[C@H](COP(=O)(O)O)[C@@H](O)[C@H]1O [AMP, reference compound]
- maximal allosteric activation ([3]; 200 μM ATP): 4.4 ± 0.1 fold
- EC50 [3, 6]: 3.8 ± 0.2 µM
- IC50 ([3]; 200 μM ATP, read-out: IC50 (concentration giving half-maximal inhibition)): 1600 ± 100 µM
- allosteric activation (human α2β2γ1 complex [4]; ATP or CoTP concentrations increased to 5 mM): abolished
- allosteric activation (human α2β2γ1 complex [4]; kinase assayed using either 200 μM ATP or CoTP as substrate): 4 fold

- Km (human α2β2γ1 complex [4]): 36 ± 3 µM
- estimated Vmax as phosphate donor (human α2β2γ1 complex [4]): 1.02
- effect on allosteric activation by AMP (human α2β2γ1 complex [4]): antagonize
SMILES: Nc1ncnc2c1ncn2[C@@H]1O[C@H](COP(=O)(O)OP(=O)(O)OP(=O)(O)O)[C@@H](O)[C@H]1O [ATP]

- IC50 ([3]; 200 μM ATP, estimated, maximal activation constrained to 4.4-fold, read-out: IC50 of inactivation): 500 ± 180 µM
- EC50 [3, 6]: 120 ± 50 µM
- EC50 ([3]; 5 mM ATP, maximal activation constrained to 4.4-fold): 1400 µM
- activation and Thr172 phosphorylation of AMPK by LKB1 (human α2β2γ1 complex [5]): promoted
- EC50 (rat liver AMPK): 68 ± 12 µM
SMILES: Nc1ncnc2c1ncn2[C@@H]1O[C@H](COP(=O)(O)O)C[C@H]1O [CoMP, cordycepin 5′-monophosphate]
- potency as an allosteric activator, less potent than AMP ([3]; 200 μM ATP): ≈ 30 fold

SMILES: Nc1ncnc2c1ncn2[C@@H]1O[C@H](COP(=O)(O)OP(=O)(O)OP(=O)(O)O)C[C@H]1O [CoTP, cordycepin triphosphate]
- Km (human α2β2γ1 complex [4]): 22 ± 3 µM
- estimated Vmax as phosphate donor (human α2β2γ1 complex [4]): 0.92
- effect on allosteric activation by AMP (human α2β2γ1 complex [4]): antagonize

SMILES: OCCN(CCO)c1nc(N2CCCCC2)c2nc(N(CCO)CCO)nc(N3CCCCC3)c2n1 [dipyridamole]
- effect of cordycepin to activate and phosphorylate AMPK (AMPK): blocked
- effects of AICA riboside on AMPK (AMPK): also blocked

- activation of AMPK complexes containing WT γ2 [1]: activated
- activation of AMPK complexes containing the R531G mutant [2]: not activated
SMILES: [H]/N=C(/N)N/C(=N/[H])NCCc1ccccc1 [phenformin]
